In patent US8133474B2, “Sensors for fluorescence and magnetic resonance imaging” (Massachusetts Institute of Technology, priority 2006, dated 2012):

What was measured:
[1] = Zinc-dependent MR relaxivity in buffered solutions; assay type: physicochemical; conditions: for zinc-induced change of MR signal in buffered solution: 1 mM Zn^2+, 25 mM Pipes pH 7, T1-weighted 200 μM agent, T2-weighted 500 μM agent with 100 mM KCl; for zinc-induced T2 change at high ionic strength: 100 mM KCl, buffered solution
Experimental: (§1) MRI samples prepared as described above were arrayed into microtiter plates and placed in a 40-cm-bore Avance 4.7 T MRI scanner (Bruker, Billerica, Mass.). Unused wells were filled with PBS, and imaging was performed on a 2-mm slice through the sample. A spin echo pulse sequence with multiecho acquisition was used. The TR was fixed for every acquisition, and the TE was in defined increments. For example, for TR=100 ms, TE varied from 10 to 80 ms, with a 10-ms increment. To adjust further the weight between T1 and T2, various TRs were applied and the TE increment was changed accordingly, if necessary. Data matrices of 512×128 points were acquired and zero-filled to 256 points in the second (phase encoding) dimension. Images were reconstructed and analyzed by using custom routines running in Matlab (Mathworks, Natick, Mass.).
Insertion of a paramagnetic manganese(III) ion into the porphyrin core of compound 1 rendered the resulting (DPA-C2)2-TPPS3Mn(III) complex (compound 2) an MRI contrast agent. The properties of compound 2 were investigated by using a spin echo pulse sequence to collect images at several echo times (TEs) in parallel. In some experiments, the repetition times (TRs) were varied so that both T1 and T2 could be evaluated. Multiwell plates were used for sample preparation, which allowed several conditions to be investigated in parallel. The well-studied MRI T1 agent, Mn-TPPS4, which contains a similar porphyrin platform as compound 2 but lacks a zinc-binding unit, was chosen as a reference compound.
The zinc-dependent MR relaxivity of compound 2 was first investigated in buffered solutions. Solutions of compound 2 or Mn-TPPS4 in 25 mM Pipes buffer at pH 7.0 were arrayed in microtiter plates. A spin echo pulse sequence was used to acquire an MRI image. […] Addition of 1 mM ZnCl2 to a 200 μM solution of compound 2 dissolved in 25 mM Pipes buffer at pH 7 slowed down the T1 relaxation. […] The T1 values of zinc-free and zinc-saturated solutions were determined at various concentrations of compound 2, from which T1 relaxivity (R1) values could be deduced.
The surrounding wells (not shown) were filled with PBS to maintain a homogenous magnetic field to mark the positions of the samples.
The zinc-induced T2 enhancement depended on the total concentration of compound 2.

[2] = tested on: intracellular zinc in HEK-293 cells; assay: Cellular MR imaging of intracellular zinc, T1 and T2 of cell pellets; assay type: cell-based; conditions: for T2 of cell pellet, zinc-treated samples: then 200 μM Zn^2+
Experimental: as §1
To investigate zinc-induced relaxivity changes in compound 2 inside cells, cell pellets were prepared with and without exogenously introduced zinc, and their MR images were recorded and compared. The HEK-293 cell suspension was divided equally into two flasks after a 24-h treatment with 100 μM of compound 2 or Mn-TPPS4. A 200-μM portion of zinc pyrithione was then added to one of the samples and incubated for an additional 10 min. As in the solution studies, comparisons were made by using Mn-TPPS4 as a reference compound. In addition, an untreated cell sample was prepared as a control. The cell suspensions were pelleted by centrifugation, washed, and transferred into a multiwell plate for MRI analysis. A spin echo pulse sequence was used to acquire MRI images.
T1 and T2 were determined by a series of MR images with varied TR or TE, respectively. The values reported are the average from three separate experiments with standard deviations as indicated by the horizontal bars.

[3] = tested on: intracellular Zn^2+ in HEK-293 cells; assay: Intracellular zinc imaging by fluorescence microscopy; assay type: cell-based; conditions: 5 μM 24 h, 40 μM Zn^2+/pyrithione 10 min
Experimental: The cell fluorescence imaging experiments were performed with an Axiovert 200M inverted epifluorescence microscope (Zeiss, Thomwood, N.Y.) equipped with an EM-CCD digital camera C9100 (Hamamatsu Hamamatsu City, Japan) and a MS200 XY Piezo Z stage (Applied Scientific Instruments, Eugene, Oreg.). An X-Cite 120 metal-halide lamp (EXFO, Quebec, Canada) was used as the light source. The fluorescence images were obtained by using a x63 oil immersion objective lenses and a customized optical filter (exciter: D425/50; emitter: E6001p; beamsplitter: 460dcxr; Chroma Technology, Rockingham, Vt.). The microscope was operated with Volocity software (Improvision, Lexington, Mass.).
Fixed cells were investigated by fluorescence imaging using a customized optical filter (exciter: D425/50; emitter: E6001p; beamsplitter: 460dcxr), which was designed to match the excitation and emission profiles of compound 1. The cell nuclei were costained with the blue fluorescent dye Hoechst 33258 (0.4 μM). The HEK-293 cells were incubated with 5 μM of compound 1 for 24 h before fixing. […] The insets show the corresponding bright-field images (Scale bars: 25 μm).

[4] = Fluorescence metal ion selectivity; conditions: 100 μM metal ion, 5 μM compound, 50 mM Hepes/100 mM KCl, pH 7.0, excitation 418 nm
Experimental: Millipore water was used to prepare all aqueous solutions. All spectroscopic measurements were performed in buffered solutions containing 50 mM of the buffering species and 100 mM KCl adjusted to the desired pH. A glass electrode (Orion, Boston, Mass.), calibrated before each use, was used to determine solution pH. Solutions of Zn^2+ were prepared from 100 mM stocks of ZnCl2 in water. Absorption spectra were recorded on a 8453A diode array spectrophotometer (Hewlett-Packard, Palo Alto, Calif.) or a Cary 50 Bio UV-visible spectrophotometer (Varian, Palo Alto, Calif.), and fluorescence spectra were obtained with a Quanta Master 4 L-format scanning spectrofluorimeter (Photon Technology International, Lawrenceville, N.J.) equipped with an LPS-220B 75-W xenon lamp and power supply, an A-1010B lamp housing with integrated igniter, a switchable 814 photon-counting/analog photomultiplier detection unit, and a MD-5020 motor driver. Samples for absorption and emission measurements were held in 1×1-cm quartz cuvettes (3.5 mL volume; Stama, Atascadero, Calif.). […] Quantum yields were determined by reference to TPPS4 [0.16 in pH=7 aqueous solution]. […]
Even large excesses of Na^+, K^+, Ca^2+, and Mg^2+, which are biologically relevant, potentially competing, mobile metal ions, barely perturb the fluorescence of the zinc-free and zinc-bound forms of compound 1.

Fluorescence pH profile = assay type: physicochemical; conditions: pH 10.1 to pH 4.5; 5 μM in 100 mM KCl; excitation 416 nm, integrated 550 to 800 nm
Experimental: The pH-sensitivity of compound 1 was then studied. In some cases, it may be advantageous to reduce fluorescence turn-on by protonation for fluorescent zinc(II) sensors, as protonation can diminish the sensitivity of the sensor to zinc by increasing the background signal intensity. […] The pH values of the solution were adjusted by adding an appropriate volume of HCl or KOH stock solution. The fluorescence spectrum was measured upon excitation at 416 nm, and the fluorescence intensity was integrated from 550 to 800 nm.

[5] = Absorption spectrum in buffered neutral aqueous solution; assay type: physicochemical; conditions: Soret band centered at 416 nm; 50 mM Hepes/100 mM KCl, pH 7.0
Experimental: Millipore water was used to prepare all aqueous solutions. All spectroscopic measurements were performed in buffered solutions containing 50 mM of the buffering species and 100 mM KCl adjusted to the desired pH. A glass electrode (Orion, Boston, Mass.), calibrated before each use, was used to determine solution pH. Solutions of Zn^2+ were prepared from 100 mM stocks of ZnCl2 in water. Absorption spectra were recorded on a 8453A diode array spectrophotometer (Hewlett-Packard, Palo Alto, Calif.) or a Cary 50 Bio UV-visible spectrophotometer (Varian, Palo Alto, Calif.), and fluorescence spectra were obtained with a Quanta Master 4 L-format scanning spectrofluorimeter (Photon Technology International, Lawrenceville, N.J.) equipped with an LPS-220B 75-W xenon lamp and power supply, an A-1010B lamp housing with integrated igniter, a switchable 814 photon-counting/analog photomultiplier detection unit, and a MD-5020 motor driver. Samples for absorption and emission measurements were held in 1×1-cm quartz cuvettes (3.5 mL volume; Stama, Atascadero, Calif.). […] Quantum yields were determined by reference to TPPS4 [0.16 in pH=7 aqueous solution].
The spectroscopic properties of compound 1 were evaluated in buffered neutral aqueous solution (50 mM Hepes/100 mM KCl, pH 7.0). […] Excitation was provided at 418 nm for the emission spectrum, and emission was detected at 648 nm for the excitation spectrum. […]

all cell lines tested = assay: Membrane permeability in cell lines; assay type: cell-based
Experimental: Suspension cultures of HEK-293 enabled production of a sizeable cell pellet, which was then plated as an adherent monolayer for fluorescence imaging studies. The monolayer cultures were subcultured five times after the initial plating, grown to 70% confluence on glass cover slips and treated with compound 1 for fluorescence imaging. The cytotoxicity of compound 1 was evaluated in these adherent HEK-293 cells by incubating them with 5 μM of compound 1 for 24 h.

HEK-293 cells [6] = assay: Subcellular localization by manganese atomic absorption spectroscopy of cell fractions; assay type: cell-based
Experimental: Cell monolayers were grown in 75-cm plates to 70% confluence and treated with 100 μM of either 2 or Mn-TPPS4, followed by incubation for 24 h. All fractionation steps were performed at 4° C. After twice pelleting by centrifugation (500×g) and washing with PBS, cells were lysed in a low-salt buffer and incubated on ice for 15 min. After centrifugation (420×g, 5 min) the pellet was resuspended in two packed-cell volumes of lysis buffer with 20 strokes of a 27-gauge syringe needle. After centrifugation (11,000×g, 20 min), the supernatant was retained (cytosolic fraction), and the nuclei were lysed in 0.42 M salt with 10 strokes of a 17-gauge syringe needle. After centrifugation (20,000×g, 5 min), the supernatant was obtained as the nuclear fraction.
Manganese atomic absorption spectroscopic analyses of samples were performed on an Aanalyst 300 instrument equipped with an HGA-800 graphite furnace (PerkinElmer, Wellesley, Mass.). Pyrolysis was performed at 1,400° C. for 30 s, and atomization was performed at 2,200° C. for 5 s.
To confirm the membrane permeability and further investigate the subcellular localization of compound 2, the cells were lysed, and nuclear and cytosolic fractions were extracted and analyzed by atomic absorption spectroscopy (AAS).

HEK-293 cells [7] = assay: Cytotoxicity in HEK-293 suspension cells, cell density; assay type: cell-based; conditions: 100 μM, 24 h
[8] = HEK-293, 100 μM 24 h, no exogenous zinc
[9] = HEK-293, 100 μM 24 h, then 200 μM zinc pyrithione 10 min

Compound | zinc-induced change of MR signal in buffered solution [1] | zinc-induced T2 change at high ionic strength [1] | T1 of cell pellet, absence of zinc [2, 8] [s] | T2 of cell pellet, non zinc-treated samples [2, 8] [ms] | T2 of cell pellet, zinc-treated samples ([2]; HEK-293, 100 μM 24 h) [ms] | T1 of cell pellet, presence of zinc [2, 9] [s] | change of intracellular red fluorescence upon addition of Zn^2+ [3] | selectivity of fluorescence turn-on for Zn^2+ over other metal ions [4] | fluorescence increase on acidification (Fluorescence pH profile) | extinction coefficient (ε) of Soret band [5] | membrane permeability (all cell lines tested) | cell membrane permeability (HEK-293 cells [6]; AAS of lysed cell fractions) | Mn in cytosol (AAS) (HEK-293 cells [6]; cells treated with 100 μM, 24 h, cytosolic fraction) [mg Mn/liter] | Mn in nuclear fraction (AAS) (HEK-293 cells [6]; cells treated with 100 μM, 24 h, nuclear fraction) [mg Mn/liter] | cytotoxicity (cell density vs untreated control cells) (HEK-293 cells [7]) | T1 of cell pellet, zinc-free sample [2, 8] [ms] | T1 of cell pellet, zinc-containing sample [2, 9] [ms] | cell membrane permeability from relative increase in T1-weighted MR signal ([2]; HEK-293 cells, 100 μM, 24 h, TR=100 ms, TE=10 ms)
O=S(=O)([O-])c1ccc(-c2c3nc(c(-c4ccc(S(=O)(=O)[O-])cc4)c4ccc([n-]4)c(-c4ccc(S(=O)(=O)[O-])cc4)c4ccc([n-]4)c(-c4ccc(S(=O)(=O)[O-])cc4)c4nc2C=C4)C=C3)cc1.[Mn+3] [Mn-TPPS4, reference compound] | almost no change | no zinc-induced T2 change | 1.1 | 107 | 94 | 1.0 | – | – | – | – | – | – | – | – | – | – | – | –
O=S(=O)(O)c1ccc(-c2c3nc(c(-c4ccc(S(=O)(=O)O)cc4)c4ccc([nH]4)c(-c4c(NCCN(Cc5ccccn5)Cc5ccccn5)cccc4NCCN(Cc4ccccn4)Cc4ccccn4)c4nc(c(-c5ccc(S(=O)(=O)O)cc5)c5ccc2[nH]5)C=C4)C=C3)cc1 [compound 1, (DPA-C2)2-TPPS3] | – | – | – | – | – | – | significant increase in the red fluorescence intensity | selective for Zn^2+ over many other monovalent and divalent metal ions | less than a factor of two | 250,700 M^−1·cm^−1 | membrane-permeable | – | – | – | – | – | – | –
(DPA-C2)2-Mn(III)TPPS3 [compound 2] | lowers the MR signal intensity | zinc-induced enhancement of T2 relaxation | – | 69 | 25.0 | – | – | – | – | – | – | cell membrane-permeable | 0.78 | 5.62 | little cytoxicity | 510 | 80 | greater cell membrane permeability than Mn-TPPS4
